Measurements: ChEMBL document CHEMBL1201862, “PubChem BioAssay data set” (2004)
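Tested at 5 concentrations; 48 h exposure; 96-well plates; endpoints linearly interpolated, else capped at highest concentration. GI50 = concentration required for 50% inhibition of growth.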 Calls of active or inactive are those of the source. Rule as the data show it: active = GI50 up to about 1.1 µM and inactive = higher.

Experiments:
Assay in all cases: NCI-60 cell line screen, 48 h
[1] = tested on: HOP-92
[2] = tested on: 786-0
[3] = tested on: SK-MEL-28
[4] = tested on: TK-10
[5] = tested on: NCI-H226
[6] = tested on: MOLT-4
[7] = tested on: SW-620
[8] = tested on: U-251
[9] = tested on: HL-60
[10] = tested on: UACC-62
[11] = tested on: K562
[12] = tested on: M19-MEL
[13] = tested on: KM12
[14] = tested on: SNB-19
[15] = tested on: NCI-H23
[16] = tested on: HT-29
[17] = tested on: RXF 393
[18] = tested on: NCI/ADR-RES
[19] = tested on: T47D
[20] = tested on: PC-3

SMILES | GI50 [1] | GI50 [2] | GI50 [3] | GI50 [4] | GI50 [5] | GI50 [6] | GI50 [7] | GI50 [8] | GI50 [9] | GI50 [10] | GI50 [11] | GI50 [12] | GI50 [13] | GI50 [14] | GI50 [15] | GI50 [16] | GI50 [17] | GI50 [18] | GI50 [19] | GI50 [20]
Nc1nc(=O)c(/N=N/c2ccccc2)c(N)[nH]1 | 22.5 µM (inactive) | 55 µM (inactive) | 24.8 µM (inactive) | 59.8 µM (inactive) | 76 µM (inactive) | > 100 µM (inactive) | 78.2 µM (inactive) | 14.4 µM (inactive) | 28.1 µM (inactive) | 18.6 µM (inactive) | 11 µM (inactive) | 39.3 µM (inactive) | 56.2 µM (inactive) | > 100 µM (inactive) | 22.8 µM (inactive) | 28.4 µM (inactive) |  |  |  | 
CCOC(=O)c1s/c(=N\Nc2nc3ccccc3cc2C2OCCO2)n(Cc2ccccc2)c1C | > 100 µM (inactive) | > 100 µM (inactive) | > 100 µM (inactive) | > 100 µM (inactive) | > 100 µM (inactive) | 40.2 µM (inactive) | > 100 µM (inactive) | > 100 µM (inactive) | > 100 µM (inactive) | > 100 µM (inactive) | > 100 µM (inactive) | > 100 µM (inactive) | > 100 µM (inactive) | > 100 µM (inactive) | > 100 µM (inactive) | > 100 µM (inactive) | > 100 µM (inactive) |  |  | 
C=CCc1cc(-c2cc(CC=C)c(O)c(CN(CCCl)CCCl)c2)cc(CN(CCCl)CCCl)c1O | 15.4 µM (inactive) | 7.94 µM (inactive) | 17.8 µM (inactive) | 19.3 µM (inactive) | 15.6 µM (inactive) | 2.52 µM (inactive) | 12.3 µM (inactive) | 10.8 µM (inactive) | 3.09 µM (inactive) | 7.89 µM (inactive) | 32.8 µM (inactive) | 14.5 µM (inactive) | 18.2 µM (inactive) | 19.1 µM (inactive) | 6.89 µM (inactive) | 13.7 µM (inactive) | 12.8 µM (inactive) | 18.9 µM (inactive) | 8.55 µM (inactive) | 9080 nM (inactive)
CC(=O)O[C@@]12CO[C@@H]1C[C@@H](O)[C@@]1(C)C(=O)[C@H](O)C3=C(C)[C@@H](OC(=O)[C@H](O)[C@@H](NC(=O)c4ccccc4)c4ccccc4)C[C@@](O)([C@@H](OC(=O)c4ccccc4)C12)C3(C)C (stereo partly specified) |  | 0.0628 µM (active) | 0.748 µM (active) | 0.705 µM (active) | 17.4 µM (inactive) | < 0.01 µM (active) | < 0.01 µM (active) | 0.141 µM (active) | < 0.01 µM (active) | < 0.01 µM (active) | 0.0156 µM (active) | < 0.01 µM (active) | < 0.01 µM (active) | 0.185 µM (active) | 0.0379 µM (active) | < 0.01 µM (active) | 0.222 µM (active) | 20.8 µM (inactive) | 0.0272 µM (active) | 16 nM (active)
O=C(N/C(=C\c1ccc2c(c1)OCO2)c1nc2ccccc2[nH]1)c1ccccc1 | 18.8 µM (inactive) | 59.2 µM (inactive) | 17.6 µM (inactive) | 29.2 µM (inactive) | 21 µM (inactive) | 20.2 µM (inactive) | 33.6 µM (inactive) | 32 µM (inactive) | 14.8 µM (inactive) | 20.9 µM (inactive) | 24.3 µM (inactive) | 3.03 µM (inactive) | 32.7 µM (inactive) | 36 µM (inactive) | 18.6 µM (inactive) | 4.98 µM (inactive) | 24.7 µM (inactive) |  |  | 
N#CCC(=O)N/N=C(/C(=O)Nc1ccccc1)C1C(=O)N(c2ccccc2)N=C1N (stereo unspecified) | > 100 µM (inactive) | > 100 µM (inactive) | > 100 µM (inactive) | > 100 µM (inactive) | > 100 µM (inactive) | > 100 µM (inactive) | > 100 µM (inactive) | > 100 µM (inactive) | > 100 µM (inactive) | > 100 µM (inactive) | > 100 µM (inactive) | > 100 µM (inactive) | > 100 µM (inactive) | > 100 µM (inactive) | > 100 µM (inactive) | > 100 µM (inactive) | > 100 µM (inactive) |  |  | 
N#Cc1nc(Nc2ccc(Cl)cc2)sc1N | 20.9 µM (inactive) | 8.43 µM (inactive) | 20.5 µM (inactive) | 23 µM (inactive) | 19.8 µM (inactive) | 1.52 µM (inactive) | 6.1 µM (inactive) | 10.2 µM (inactive) | 4.92 µM (inactive) | 10.1 µM (inactive) | 3.91 µM (inactive) | 12.4 µM (inactive) | 13.8 µM (inactive) | 22.1 µM (inactive) | 3.19 µM (inactive) | 19.7 µM (inactive) |  |  |  | 
CCCCCNC(=O)C1C(=O)N(CCCCC)C(=O)/C1=N\N (stereo unspecified) | 37.8 µM (inactive) | > 100 µM (inactive) | 62.8 µM (inactive) | > 100 µM (inactive) |  | 40.8 µM (inactive) | 79.3 µM (inactive) | 30.1 µM (inactive) | > 100 µM (inactive) | 43.5 µM (inactive) | 34.4 µM (inactive) | 86.5 µM (inactive) | 53.2 µM (inactive) | 35.2 µM (inactive) | 47.5 µM (inactive) | 83.8 µM (inactive) |  |  |  | 
O=C(O/N=C1/CCCC/C1=C\c1ccccc1)c1ccccc1 | 63.5 µM (inactive) | > 100 µM (inactive) | > 100 µM (inactive) | > 100 µM (inactive) | > 100 µM (inactive) | 24.5 µM (inactive) | > 100 µM (inactive) | 92.7 µM (inactive) | 20.2 µM (inactive) | > 100 µM (inactive) | 20.8 µM (inactive) | > 100 µM (inactive) | 45.3 µM (inactive) | > 100 µM (inactive) | > 100 µM (inactive) | 40 µM (inactive) | > 100 µM (inactive) |  |  | 
Nc1nc(SCCC/C=C/B(O)O)nc2c1ncn2C1OC(COP(=O)(O)O)C(O)C1O (stereo unspecified) | > 203 µM (inactive) | > 203 µM (inactive) | > 203 µM (inactive) | > 203 µM (inactive) | > 203 µM (inactive) | > 203 µM (inactive) | > 203 µM (inactive) | > 203 µM (inactive) | > 203 µM (inactive) | > 203 µM (inactive) | > 203 µM (inactive) | > 203 µM (inactive) | > 203 µM (inactive) | > 203 µM (inactive) | > 203 µM (inactive) | > 203 µM (inactive) |  |  |  | 
Clc1c(Cl)c2c(Cl)c(Cl)c1C[PH](c1ccccc1)(c1ccccc1)CC[PH](c1ccccc1)(c1ccccc1)Cc1c(Cl)c(Cl)c(c(Cl)c1Cl)C[PH](c1ccccc1)(c1ccccc1)CC[PH](c1ccccc1)(c1ccccc1)C2 | 2.26 µM (inactive) | 4.67 µM (inactive) | 2.02 µM (inactive) | 3.18 µM (inactive) | 5.07 µM (inactive) | 3.27 µM (inactive) | 3.31 µM (inactive) | 3.22 µM (inactive) | 1.36 µM (inactive) | 1.85 µM (inactive) | 2.09 µM (inactive) | 2.81 µM (inactive) | 2.34 µM (inactive) | 2.67 µM (inactive) | 2.01 µM (inactive) | 2.21 µM (inactive) | 2.49 µM (inactive) |  |  | 
O=C1NC(=O)C(=Cc2c3ccccc3cc3ccccc23)C(=O)N1 | > 100 µM (inactive) | > 100 µM (inactive) | > 100 µM (inactive) | > 100 µM (inactive) |  | 55.5 µM (inactive) | > 100 µM (inactive) | > 100 µM (inactive) | 44.7 µM (inactive) | > 100 µM (inactive) | 71.3 µM (inactive) | > 100 µM (inactive) |  | > 100 µM (inactive) | > 100 µM (inactive) | 55.1 µM (inactive) | > 100 µM (inactive) |  |  | 
Cc1ccc(C(=O)C#Cc2cnc(O)nc2O)cc1 | 18.6 µM (inactive) | 13.4 µM (inactive) | 16.9 µM (inactive) | 18 µM (inactive) | 17.4 µM (inactive) | 3.41 µM (inactive) | 8.69 µM (inactive) | 12.9 µM (inactive) | 11.5 µM (inactive) | 10.2 µM (inactive) | 6.07 µM (inactive) | 14.7 µM (inactive) | 14.7 µM (inactive) | 18.2 µM (inactive) | 17.5 µM (inactive) | 21.5 µM (inactive) | 2.99 µM (inactive) |  |  | 
COc1c(OC(C)=O)c(OC(C)=O)cc2c1-c1ccc(OC)c(=O)cc1C(NC(C)=O)CC2 (stereo unspecified) | 0.0173 µM (active) | 0.027 µM (active) | < 0.0363 µM (active) | 2.7 µM (inactive) | 0.331 µM (active) | 0.0155 µM (active) | < 0.0125 µM (active) | 0.0321 µM (active) | < 0.01 µM (active) | < 0.01 µM (active) | < 0.0123 µM (active) | < 0.0167 µM (active) | 0.0154 µM (active) | 0.0336 µM (active) | 0.0199 µM (active) | 0.0198 µM (active) | < 0.01 µM (active) | 1.6 µM (inactive) | > 100 µM (inactive) | 49.3 nM (active)
Cc1c2ccnc(C(N)=O)c2c(C)c2c1[nH]c1ccccc12 |  | 5.08 µM (inactive) | 7.78 µM (inactive) | 5.55 µM (inactive) | 6.65 µM (inactive) | 2.72 µM (inactive) | 3.19 µM (inactive) | 8.51 µM (inactive) | 13.4 µM (inactive) | 4.92 µM (inactive) | 11 µM (inactive) | 7.46 µM (inactive) | 6.07 µM (inactive) | 8.13 µM (inactive) | 4.84 µM (inactive) | 6.35 µM (inactive) | 4.19 µM (inactive) | 5.65 µM (inactive) |  | 
